{"source": "paper PMC9120017", "about": "“Inhibition mechanism of the chloride channel TMEM16A by the pore blocker 1PBC” (Nature Communications, 2022)", "molecular_target": "T1, mouse TMEM16A mutant T539A (Mus musculus, UniProt Q8BHY3, T539A)", "T1 construct": "expressed in transfected cells; host or cells: HEK293T", "T1 sequence (Q8BHY3 1-960 T539A)": "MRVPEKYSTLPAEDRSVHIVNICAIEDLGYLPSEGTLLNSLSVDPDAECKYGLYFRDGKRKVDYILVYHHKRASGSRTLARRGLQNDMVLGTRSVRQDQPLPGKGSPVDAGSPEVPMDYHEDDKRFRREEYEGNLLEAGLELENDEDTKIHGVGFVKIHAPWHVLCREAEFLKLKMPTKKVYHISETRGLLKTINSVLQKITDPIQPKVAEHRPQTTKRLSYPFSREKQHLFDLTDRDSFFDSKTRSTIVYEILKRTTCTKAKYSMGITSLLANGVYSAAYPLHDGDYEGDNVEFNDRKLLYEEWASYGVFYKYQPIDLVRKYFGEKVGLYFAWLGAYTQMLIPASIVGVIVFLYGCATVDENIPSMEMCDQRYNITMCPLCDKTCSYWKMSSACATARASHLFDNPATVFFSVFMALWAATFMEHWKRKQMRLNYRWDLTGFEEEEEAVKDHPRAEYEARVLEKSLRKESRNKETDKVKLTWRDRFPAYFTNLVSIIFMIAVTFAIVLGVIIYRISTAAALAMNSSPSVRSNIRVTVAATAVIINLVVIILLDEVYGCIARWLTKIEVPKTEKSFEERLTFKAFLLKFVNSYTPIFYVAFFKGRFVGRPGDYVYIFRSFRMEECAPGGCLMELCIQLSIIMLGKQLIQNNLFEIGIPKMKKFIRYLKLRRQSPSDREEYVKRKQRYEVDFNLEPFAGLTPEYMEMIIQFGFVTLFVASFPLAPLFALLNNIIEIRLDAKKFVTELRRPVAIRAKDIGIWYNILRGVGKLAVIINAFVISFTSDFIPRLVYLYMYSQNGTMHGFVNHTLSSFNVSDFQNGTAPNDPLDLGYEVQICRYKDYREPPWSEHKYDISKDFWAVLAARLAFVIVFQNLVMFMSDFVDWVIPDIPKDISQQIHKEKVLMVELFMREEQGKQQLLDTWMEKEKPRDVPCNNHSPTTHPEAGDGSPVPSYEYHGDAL", "assay": "Inside-out patch recording of 1PBC block, mutant T539A", "format": "cell-based", "details": "for remaining activity at 100 µM: 100 µM 1PBC", "description": "HEK293T cells (ATCC CRL-1573) were maintained in Dulbecco’s modified Eagle’s medium (DMEM; Sigma-Aldrich) supplemented with 10 U ml^−1 penicillin, 0.1 mg ml^−1 streptomycin (Sigma-Aldrich), 2 mM L-glutamine (Sigma-Aldrich), and 10% FBS (Sigma-Aldrich) in a humidified atmosphere containing 5% CO2 at 37 °C. HEK293S GnTI^− cells (ATCC CRL-3022) were maintained in HyClone HyCell TransFx-H medium (GE Healthcare) supplemented with 10 U ml^−1 penicillin, 0.1 mg ml^−1 streptomycin, 4 mM L-glutamine, 0.15% poloxamer 188 (Sigma-Aldrich), and 1% FBS in an atmosphere containing 5% CO2 at 185 rpm at 37 °C. The ac splice variant of mouse TMEM16A (UniProt ID: Q8BHY3), mouse TMEM16B (UniProt ID: Q8CFW1), or mouse TMEM16F (UniProt ID: Q6P9J9) bearing a 3C cleavage site, a Venus YFP, a Myc tag, and a Streptavidin-binding peptide (SBP) downstream of the open reading frame in a modified pcDNA3.1 vector (Invitrogen) were used as described previously[21],[31]. Mutations were introduced using a modified QuikChange method[58] and were verified by sequencing.\nHEK293T cells were transfected with 3–4 μg DNA per 6 cm Petri dish using the calcium phosphate co-precipitation method and were used within 24–96 h after transfection. Recordings were performed on inside-out patches excised from HEK293T cells expressing the construct of interest. Patch pipettes were pulled from borosilicate glass capillaries (O.D. 1.5 mm, I.D. 0.86 mm, Sutter Instrument) and were fire-polished with a microforge (Narishige) before use. Pipette resistance was typically 3–8 MΩ when filled with the recording solutions detailed below. Seal resistance was typically 4 GΩ or higher. Voltage-clamp recordings were made using Axopatch 200B, Digidata 1550, and Clampex 10.7 (Molecular Devices). Analog signals were filtered with the in-built 4-pole Bessel filter at 10 kHz and were digitized at 20 kHz. Solution exchange was achieved using a gravity-fed system through a theta glass pipette mounted on an ultra-fast piezo-driven stepper (Siskiyou). […] All recordings were performed at 20 °C.\nA symmetrical ionic condition was used throughout. Stock solution with Ca^2+-EGTA contained 150 mM NaCl, 5.99 mM Ca(OH)2, 5 mM EGTA, and 10 mM HEPES at pH 7.40. Stock solution with EGTA contained 150 mM NaCl, 5 mM EGTA, and 10 mM HEPES at pH 7.40. Free Ca^2+ concentrations were adjusted by mixing the stock solutions at the required ratios calculated using the WEBMAXC program (http://web.stanford.edu/~cpatton/webmaxcS.htm). Patch pipettes were filled with the stock solution with Ca^2+-EGTA, which has a free Ca^2+ concentration of 1 mM. 1PBC (ChemBridge) stock was reconstituted in anhydrous DMSO (Sigma-Aldrich) at 100 mM and stored at −20 °C. Working solutions with 1PBC were prepared by serial dilution. Unless otherwise stated, experiments were performed at a saturating Ca^2+ concentration as shown in Supplementary Table 1 and the primary data were corrected for current rundown as described previously[21],[25].\nConcentration-response relations, obtained from the ratio of the I-V plots before and after the application of the blocker, were fitted to the Hill equation,1 I/Imax=1/1+IC50/[blocker]^h where I/Imax is the normalized current responses, IC50 defines the concentration at which inhibition is at its half-maximum, and h is the Hill coefficient.", "note": "Like-named read-outs stand apart in the source and are kept apart here.", "data": [{"compound": "N#Cc1c(C(F)(F)F)cc(O)n2c1nc1ccccc12", "note": "[1PBC]", "values": [{"measurement": "IC50", "setting": "0 mV, 2 µM Ca2+", "value": 14.9, "unit": "µM"}, {"measurement": "remaining activity at 3 µM", "setting": "3 µM 1PBC, +80 mV, saturating Ca2+ (2 µM), read-out: I/Imax", "value": 77.1, "unit": "%"}, {"measurement": "remaining activity at 3 µM", "setting": "3 µM 1PBC, -80 mV, saturating Ca2+ (2 µM), read-out: I/Imax", "value": 91.4, "unit": "%"}, {"measurement": "remaining activity at 10 µM", "setting": "10 µM 1PBC, +80 mV, saturating Ca2+ (2 µM), read-out: I/Imax", "value": 45.4, "unit": "%"}, {"measurement": "remaining activity at 10 µM", "setting": "10 µM 1PBC, -80 mV, saturating Ca2+ (2 µM), read-out: I/Imax", "value": 71.2, "unit": "%"}, {"measurement": "remaining activity at 30 µM", "setting": "30 µM 1PBC, +80 mV, saturating Ca2+ (2 µM), read-out: I/Imax", "value": 23.5, "unit": "%"}, {"measurement": "remaining activity at 30 µM", "setting": "30 µM 1PBC, -80 mV, saturating Ca2+ (2 µM), read-out: I/Imax", "value": 49.4, "unit": "%"}, {"measurement": "remaining activity at 100 µM", "setting": "+80 mV, saturating Ca2+ (2 µM), read-out: I/Imax", "value": 8.95, "unit": "%"}, {"measurement": "remaining activity at 100 µM", "setting": "-80 mV, saturating Ca2+ (2 µM), read-out: I/Imax", "value": 25, "unit": "%"}, {"measurement": "remaining activity at 3 µM", "setting": "1PBC 3, 0 mV, read-out: fraction of unblocked current", "value": 85.3, "unit": "%"}, {"measurement": "remaining activity at 3 µM", "setting": "1PBC 3, 20 mV, read-out: fraction of unblocked current", "value": 83.3, "unit": "%"}, {"measurement": "remaining activity at 3 µM", "setting": "1PBC 3, 40 mV, read-out: fraction of unblocked current", "value": 80.1, "unit": "%"}, {"measurement": "remaining activity at 3 µM", "setting": "1PBC 3, 60 mV, read-out: fraction of unblocked current", "value": 78.3, "unit": "%"}, {"measurement": "remaining activity at 3 µM", "setting": "1PBC 3, 80 mV, read-out: fraction of unblocked current", "value": 77.1, "unit": "%"}, {"measurement": "remaining activity at 3 µM", "setting": "1PBC 3, 100 mV, read-out: fraction of unblocked current", "value": 77.2, "unit": "%"}, {"measurement": "remaining activity at 3 µM", "setting": "1PBC 3, 120 mV, read-out: fraction of unblocked current", "value": 77.7, "unit": "%"}, {"measurement": "remaining activity at 3 µM", "setting": "1PBC 3, 140 mV, read-out: fraction of unblocked current", "value": 79.8, "unit": "%"}, {"measurement": "remaining activity at 3 µM", "setting": "1PBC 3, -20 mV, read-out: fraction of unblocked current", "value": 87.2, "unit": "%"}, {"measurement": "remaining activity at 3 µM", "setting": "1PBC 3, -40 mV, read-out: fraction of unblocked current", "value": 88.4, "unit": "%"}, {"measurement": "remaining activity at 3 µM", "setting": "1PBC 3, -60 mV, read-out: fraction of unblocked current", "value": 90, "unit": "%"}, {"measurement": "remaining activity at 3 µM", "setting": "1PBC 3, -80 mV, read-out: fraction of unblocked current", "value": 91.4, "unit": "%"}, {"measurement": "remaining activity at 3 µM", "setting": "1PBC 3, -100 mV, read-out: fraction of unblocked current", "value": 92.2, "unit": "%"}, {"measurement": "remaining activity at 3 µM", "setting": "1PBC 3, -120 mV, read-out: fraction of unblocked current", "value": 93.2, "unit": "%"}, {"measurement": "remaining activity at 3 µM", "setting": "1PBC 3, -140 mV, read-out: fraction of unblocked current", "value": 93.5, "unit": "%"}, {"measurement": "remaining activity at 10 µM", "setting": "1PBC 10, 0 mV, read-out: fraction of unblocked current", "value": 56.5, "unit": "%"}, {"measurement": "remaining activity at 10 µM", "setting": "1PBC 10, 20 mV, read-out: fraction of unblocked current", "value": 53.9, "unit": "%"}, {"measurement": "remaining activity at 10 µM", "setting": "1PBC 10, 40 mV, read-out: fraction of unblocked current", "value": 50.2, "unit": "%"}, {"measurement": "remaining activity at 10 µM", "setting": "1PBC 10, 60 mV, read-out: fraction of unblocked current", "value": 47.6, "unit": "%"}, {"measurement": "remaining activity at 10 µM", "setting": "1PBC 10, 80 mV, read-out: fraction of unblocked current", "value": 45.4, "unit": "%"}, {"measurement": "remaining activity at 10 µM", "setting": "1PBC 10, 100 mV, read-out: fraction of unblocked current", "value": 44.7, "unit": "%"}, {"measurement": "remaining activity at 10 µM", "setting": "1PBC 10, 120 mV, read-out: fraction of unblocked current", "value": 45.3, "unit": "%"}, {"measurement": "remaining activity at 10 µM", "setting": "1PBC 10, 140 mV, read-out: fraction of unblocked current", "value": 47, "unit": "%"}, {"measurement": "remaining activity at 10 µM", "setting": "1PBC 10, -20 mV, read-out: fraction of unblocked current", "value": 59.1, "unit": "%"}, {"measurement": "remaining activity at 10 µM", "setting": "1PBC 10, -40 mV, read-out: fraction of unblocked current", "value": 63.7, "unit": "%"}, {"measurement": "remaining activity at 10 µM", "setting": "1PBC 10, -60 mV, read-out: fraction of unblocked current", "value": 67.6, "unit": "%"}, {"measurement": "remaining activity at 10 µM", "setting": "1PBC 10, -80 mV, read-out: fraction of unblocked current", "value": 71.2, "unit": "%"}, {"measurement": "remaining activity at 10 µM", "setting": "1PBC 10, -100 mV, read-out: fraction of unblocked current", "value": 73.9, "unit": "%"}, {"measurement": "remaining activity at 10 µM", "setting": "1PBC 10, -120 mV, read-out: fraction of unblocked current", "value": 76.5, "unit": "%"}, {"measurement": "remaining activity at 10 µM", "setting": "1PBC 10, -140 mV, read-out: fraction of unblocked current", "value": 78.6, "unit": "%"}, {"measurement": "remaining activity at 30 µM", "setting": "1PBC 30, 0 mV, read-out: fraction of unblocked current", "value": 34.9, "unit": "%"}, {"measurement": "remaining activity at 30 µM", "setting": "1PBC 30, 20 mV, read-out: fraction of unblocked current", "value": 31, "unit": "%"}, {"measurement": "remaining activity at 30 µM", "setting": "1PBC 30, 40 mV, read-out: fraction of unblocked current", "value": 27.7, "unit": "%"}, {"measurement": "remaining activity at 30 µM", "setting": "1PBC 30, 60 mV, read-out: fraction of unblocked current", "value": 25.4, "unit": "%"}, {"measurement": "remaining activity at 30 µM", "setting": "1PBC 30, 80 mV, read-out: fraction of unblocked current", "value": 23.5, "unit": "%"}, {"measurement": "remaining activity at 30 µM", "setting": "1PBC 30, 100 mV, read-out: fraction of unblocked current", "value": 22.5, "unit": "%"}, {"measurement": "remaining activity at 30 µM", "setting": "1PBC 30, 120 mV, read-out: fraction of unblocked current", "value": 21.8, "unit": "%"}, {"measurement": "remaining activity at 30 µM", "setting": "1PBC 30, 140 mV, read-out: fraction of unblocked current", "value": 22.4, "unit": "%"}, {"measurement": "remaining activity at 30 µM", "setting": "1PBC 30, -20 mV, read-out: fraction of unblocked current", "value": 38.8, "unit": "%"}, {"measurement": "remaining activity at 30 µM", "setting": "1PBC 30, -40 mV, read-out: fraction of unblocked current", "value": 42.4, "unit": "%"}]}]}
